According to publication PMC5378611 (Drug testing and analysis, 2017):
Where two headings read alike, the source gives them in different places.

What was measured:
[1] = biological target: serotonin transporters (SERT) (Rattus norvegicus, UniProt P31652); assay: [3H]serotonin uptake inhibition via SERT in rat brain synaptosomes; type: cell-based
[2] = biological target: dopamine transporters (DAT) (Rattus norvegicus, UniProt P23977); assay: [3H]dopamine uptake inhibition via DAT in rat brain synaptosomes; type: cell-based
dopamine transporters (DAT), sequence (P23977 whole entry): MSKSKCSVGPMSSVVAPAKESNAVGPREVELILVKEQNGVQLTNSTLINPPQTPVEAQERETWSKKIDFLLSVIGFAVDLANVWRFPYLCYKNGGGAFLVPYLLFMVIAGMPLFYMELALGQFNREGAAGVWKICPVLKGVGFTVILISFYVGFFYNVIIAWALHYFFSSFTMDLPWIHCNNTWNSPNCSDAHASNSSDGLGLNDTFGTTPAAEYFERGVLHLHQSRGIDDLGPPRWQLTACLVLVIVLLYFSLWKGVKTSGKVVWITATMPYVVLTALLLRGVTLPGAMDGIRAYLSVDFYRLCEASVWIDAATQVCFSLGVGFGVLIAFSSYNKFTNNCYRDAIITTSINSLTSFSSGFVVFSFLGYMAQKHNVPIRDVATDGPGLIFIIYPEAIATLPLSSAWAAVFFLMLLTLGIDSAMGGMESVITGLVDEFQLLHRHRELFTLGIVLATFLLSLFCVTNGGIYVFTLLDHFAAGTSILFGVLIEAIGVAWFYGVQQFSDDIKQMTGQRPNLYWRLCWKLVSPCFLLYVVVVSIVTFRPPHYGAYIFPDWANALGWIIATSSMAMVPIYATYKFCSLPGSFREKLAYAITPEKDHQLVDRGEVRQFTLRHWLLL

[3] = biological target: norepinephrine transporters (NET) (Rattus norvegicus, UniProt Q63380); assay: [3H]norepinephrine uptake inhibition via NET in rat brain synaptosomes; type: cell-based; conditions: times less potent, from IC50 values
norepinephrine transporters (NET), sequence (Q63380 1-617): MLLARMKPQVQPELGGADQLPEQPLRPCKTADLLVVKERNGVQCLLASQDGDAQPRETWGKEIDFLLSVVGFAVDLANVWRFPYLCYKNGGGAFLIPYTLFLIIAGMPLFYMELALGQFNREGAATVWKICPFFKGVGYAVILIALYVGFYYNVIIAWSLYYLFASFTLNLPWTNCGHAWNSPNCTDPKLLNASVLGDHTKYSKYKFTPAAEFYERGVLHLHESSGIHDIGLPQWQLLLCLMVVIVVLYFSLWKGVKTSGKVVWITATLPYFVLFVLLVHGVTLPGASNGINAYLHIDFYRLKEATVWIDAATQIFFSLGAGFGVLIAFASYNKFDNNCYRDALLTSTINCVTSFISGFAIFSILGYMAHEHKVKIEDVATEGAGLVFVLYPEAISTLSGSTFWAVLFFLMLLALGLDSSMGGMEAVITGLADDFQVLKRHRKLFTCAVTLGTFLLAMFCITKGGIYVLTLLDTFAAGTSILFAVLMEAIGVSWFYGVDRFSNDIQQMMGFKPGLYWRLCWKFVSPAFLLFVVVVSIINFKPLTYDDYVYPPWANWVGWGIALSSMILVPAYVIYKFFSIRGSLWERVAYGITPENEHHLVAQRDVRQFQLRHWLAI

[4] = cited from earlier work
DAT = conditions: read-out: binding affinity toward DAT IC50; [3H]WIN-35,428; cited from earlier work
[5] = read-out: [3H]5-HT uptake via SERT IC50, rat brain synaptosomes, 5 nM [3H]serotonin, mean ± SD, n = 3

serotonin transporters (SERT), sequence (P31652 whole entry): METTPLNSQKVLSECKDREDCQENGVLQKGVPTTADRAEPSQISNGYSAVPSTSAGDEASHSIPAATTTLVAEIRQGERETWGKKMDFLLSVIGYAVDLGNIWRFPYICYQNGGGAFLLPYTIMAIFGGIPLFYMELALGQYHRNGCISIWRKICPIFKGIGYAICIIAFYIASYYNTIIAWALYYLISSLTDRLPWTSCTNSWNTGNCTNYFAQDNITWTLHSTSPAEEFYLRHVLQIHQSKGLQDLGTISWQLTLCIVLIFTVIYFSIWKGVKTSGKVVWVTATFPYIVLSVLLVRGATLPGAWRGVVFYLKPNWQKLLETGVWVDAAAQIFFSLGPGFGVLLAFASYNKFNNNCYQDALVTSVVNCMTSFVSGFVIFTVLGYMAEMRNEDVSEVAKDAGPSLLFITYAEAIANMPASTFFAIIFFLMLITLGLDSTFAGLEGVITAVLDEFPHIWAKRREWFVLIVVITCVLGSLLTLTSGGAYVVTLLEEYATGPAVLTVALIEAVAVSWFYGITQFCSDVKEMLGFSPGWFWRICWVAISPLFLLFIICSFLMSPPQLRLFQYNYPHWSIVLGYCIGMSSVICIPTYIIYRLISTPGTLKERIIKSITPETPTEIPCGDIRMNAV

| SMILES | IC50 [1, 5] [µM] | IC50 [2] [µM] | potency relative to (±)-threo-4F-MPH at the norepinephrine transporter [3] | IC50 [1] [µM] | potency relative to MPH in drug discrimination [4] | IC50 (DAT) [µM] |
| --- | --- | --- | --- | --- | --- | --- |
| COC(=O)[C@H](c1ccc(F)cc1)[C@H]1CCCCN1 (racemic) [(±)-erythro-4F-MPH, 4-Fluoromethylphenidate] | > 10 | – | – | – | – | – |
| COC(=O)C(c1ccccc1)C1CCCCN1 (stereo not shown) [MPH, methyl-2-phenyl-2-(piperidin-2-yl)acetate] | – | 0.131 ± 0.0142 | around 2.5 | > 10 | – | – |
| COC(=O)[C@H](c1ccc(F)cc1)[C@H]1CCCCN1 (racemic) [(±)-threo-4F-MPH, 4-Fluoromethylphenidate] | 8.8 | – | – | – | about three times more potent than MPH | 0.035 |
